Patent US20060265769A1, “Gab2 (p97) gene and methods of use thereof” (Beth Israel Deaconess Medical Center, Inc., priority 2000, published 2006)

Columns and labels:
BaF3 cells = assay: IL-3-induced c-fos promoter luciferase reporter assay; type: cell-based; settings: IL-3 stimulation
Method: Therefore, the role of Gab2 in IL-3-induced c-fos promoter activity was assessed. For c-fos reporter assays, 1.5 μg of c-fos promoter (nt −710 to +42)-luciferase reporter were used (Hu et al., Science 268, 100-102 (1995)). STAT-driven transctivation was measured using 1.5 μg of a GAS-luciferase reporter (Jaster et al., Mol. Cell. Biol. 3364-3372 (1997)). For Elk assays, Gal4-Elk-1 (2 μg) and Gal4-luciferase (1 μg) were used (Bennett et al., Mol. Cell. Biol. 16, 1189-1202 (1996)). Cells were electroporated at 300V/800 μF, transferred to fresh RPMI/10% WEHI supernatant/10% FCS and, after three hours, were starved in RPMI/10% FCS. Twelve hours post-transfection, transfected cells (approximately 10^6/condition) were incubated in RPMI/10% FCS alone or with murine IL-3 (1 ng/ml) for two hours. Luciferase assays were performed with a kit (Promega, Madison, Wis.). Promoter activities were normalized to Renilla luciferase levels.

MCF10A cells [1] = assay: Proliferation of MCF10A cells in three-dimensional culture (Ki67 staining); type: cell-based, human; settings: Gab2-overexpressing MCF10A, days 6 and 15 of culture; UO 15 μM on days 13 and 14 (FIG. 15F)
MCF10A cells [2] = settings: treated on days 1 and 2, acini at 9 days (FIG. 15G)

COc1cccc(-c2cc(=O)c3ccccc3o2)c1N [PD98059]
IL-3-induced c-fos luciferase activity (BaF3 cells): ablated

N#CC(=C(/N)Sc1ccccc1N)/C(C#N)=C(/N)Sc1ccccc1N [UO126]
effects of Gab2 overexpression on the proliferation of MCF10A (MCF10A cells [1]): abolished
cooperation of Gab2 with Neu (MCF10A cells [2]): blocked
